Source: patent US20090047246A1, “NOVEL INHIBITORS OF HEPATITIS C VIRUS REPLICATION” (InterMune, Inc., priority 2007, published 2009)

Target: T1, HCV NS3 helicase (Hepatitis C virus genotype 1b, UniProt P26663)
T1 construct: full-length NS3 (1-631), purified at Array BioPharma
Test: HCV Helicase Prompt FRET Assay (Example A)
Type: biochemical
Settings: HCV NS3 helicase; tables do not say whether Example A or Example B assay; read-out: IC50 Activity
Protocol: Test compounds were diluted to 2.5 mM by adding 6 uL of a 10 mM solution of the compound to 18 uL of DMSO in a 384-well Costar polypropylene plate. Serial dilutions (2.5×) were performed in the plate using DMSO as the diluent. 1 ul of solution was transferred from each well to a new 384-well Costar polypropylene plate.
A 2× mixture was prepared containing 100 nM helicase substrate, 500 nM helicase capture strand (CS), and 600 μM ATP by diluting stock solutions with assay buffer consisting of 25 mM MOPS, pH 7.0, and 1.5 mM MgCl2, 0.005% (v/v) Triton X-100. Stock helicase substrate was prepared by annealing a FAM-labeled oligonucleotide to a BHQ-1 labeled oligonucleotide, which were both custom synthesized and HPLC-purified at Biosearch Technologies. The FAM-labeled and BHQ-labeled oligonucleotide had the following sequences:
The helicase capture strand was custom synthesized and purified at Integrated DNA Technologies. The helicase capture strand had the following sequence:
The ATP solution was prepared in MilliQ water, pH adjusted to approximately 7 with NaOH. ATP powder was obtained from Sigma (A-7699). The concentration was determined via A260 (ext. coeff=15,400 M^−1cm^−1).
11.5 μL of assay buffer was added to all wells of the plate containing luL of test compound. 5 μL of the Compound/assay buffer mixture was added to a black polystyrene 384-well Proxiplate. A 4× Enzyme solution was prepared by diluting enzyme stock containing full-length NS3 (1-631), purified at Array BioPharma, with assay buffer. 5 μL of the 4× Enzyme solution was added to the Proxiplate and incubated for 5 minutes (for control wells lacking enzyme, assay buffer was used instead). 10 μL of 2× substrate/CS/ATP mixture was then added to all wells of Proxiplate. The final assay conditions included 50 nM Substrate, 250 nM Capture Strand, 300 μM ATP, 5 or 6 nM Enzyme, and 2% (v/v) DMSO. The reaction proceeded for 70 cycles (˜30 min.) on an Envision at room temperature. The plate was read using the Envision (top mirror=FITC; Excitation filter=FITC 485; Emission filter=FITC 535). The fluorescence intensity was recorded for a total of 30 minutes. The initial rates of the reactions was calculated and used to calculate IC50 values. The IC50 curve fitting was performed using either a 4-parameter or 5-parameter logistic equation.

T1 sequence (P26663 1027-1657): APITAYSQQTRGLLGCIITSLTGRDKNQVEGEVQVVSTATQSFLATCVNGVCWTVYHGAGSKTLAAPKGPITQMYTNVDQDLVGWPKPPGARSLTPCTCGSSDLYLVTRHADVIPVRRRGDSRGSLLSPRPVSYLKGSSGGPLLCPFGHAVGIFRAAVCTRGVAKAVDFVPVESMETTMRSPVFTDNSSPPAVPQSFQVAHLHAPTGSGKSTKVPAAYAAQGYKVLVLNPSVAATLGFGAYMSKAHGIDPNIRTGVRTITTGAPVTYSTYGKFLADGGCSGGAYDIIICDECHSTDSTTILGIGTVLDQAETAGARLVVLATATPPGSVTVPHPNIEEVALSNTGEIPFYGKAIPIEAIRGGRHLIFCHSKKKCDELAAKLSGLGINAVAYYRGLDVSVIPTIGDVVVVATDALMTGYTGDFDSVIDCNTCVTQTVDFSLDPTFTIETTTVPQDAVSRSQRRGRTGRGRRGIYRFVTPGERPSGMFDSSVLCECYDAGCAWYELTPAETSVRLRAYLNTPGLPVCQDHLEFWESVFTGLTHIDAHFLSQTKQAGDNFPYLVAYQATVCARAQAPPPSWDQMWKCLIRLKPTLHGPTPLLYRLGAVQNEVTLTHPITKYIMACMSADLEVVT

IC50 | Structure (SMILES)
< 10 µM | CCC(C)N(Cc1ccccc1)c1ccc(-n2cc(CC(=O)O)c3ccccc32)cc1 (stereo not shown) [Example 171]
< 10 µM | CC(CO)N(Cc1ccccc1)c1ccc(-n2cc(CC(=O)O)c3ccccc32)cc1 (stereo not shown) [Example 172]
10 to 50 µM | Cc1cc(NCc2ccccc2)ccc1-n1cc(CC(=O)O)c2ccccc21 [Example 173]
< 10 µM | CCN(Cc1ccccc1)c1ccc(-n2cc(CC(=O)O)c3ccccc32)c(C)c1 [Example 174]
10 to 50 µM | CCN(Cc1ccccc1)c1ccc(-n2nc(CC(=O)O)c3ccccc32)c(C)c1 [Example 175]
< 10 µM | Cc1cccc(CN(C)c2ccc(-n3cc(CC(=O)O)c4ccccc43)cc2)c1 [Example 176]
< 10 µM | COc1cccc(CN(C)c2ccc(-n3cc(CC(=O)O)c4ccccc43)cc2)c1 [Example 177]
< 10 µM | CN(Cc1cccc(F)c1)c1ccc(-n2cc(CC(=O)O)c3ccccc32)cc1 [Example 178]
< 10 µM | CN(Cc1cccc(Cl)c1)c1ccc(-n2cc(CC(=O)O)c3ccccc32)cc1 [Example 179]
10 to 50 µM | CN(Cc1cccnc1)c1ccc(-n2cc(CC(=O)O)c3ccccc32)cc1 [Example 180]
< 10 µM | Cc1ccccc1CN(C)c1ccc(-n2cc(CC(=O)O)c3ccccc32)cc1 [Example 181]
< 10 µM | CN(Cc1ccccc1F)c1ccc(-n2cc(CC(=O)O)c3ccccc32)cc1 [Example 182]
10 to 50 µM | CCCNC(=O)Cc1cn(Cc2cccc(OCc3ccccc3)c2)c2ccc(Br)cc12 [Example 183]
10 to 50 µM | O=C(Cc1cn(Cc2cccc(CCc3ccccc3)c2)c2ccc(Br)cc12)N1CCCC1 [Example 184]
10 to 50 µM | O=C(Cc1cn(Cc2cccc(OCc3ccccc3)c2)c2ccc(Br)cc12)NCC1CC1 [Example 185]
10 to 50 µM | CCNC(=O)Cc1cn(Cc2cccc(OCc3ccccc3)c2)c2ccc(OCc3ccccc3)cc12 [Example 186]
10 to 50 µM | CC(C)CNC(=O)Cc1cn(Cc2cccc(OCc3ccccc3)c2)c2ccc(OCc3ccccc3)cc12 [Example 187]
10 to 50 µM | O=C(Cc1cn(Cc2cccc(OCc3ccccc3)c2)c2ccc(OCc3ccccc3)cc12)N1CCCCC1 [Example 188]
10 to 50 µM | O=C(Cc1cn(Cc2cccc(OCc3ccccc3)c2)c2ccc(OCc3ccccc3)cc12)N1CCCC1 [Example 189]
10 to 50 µM | O=C(Cc1cn(Cc2cccc(OCc3ccccc3)c2)c2ccc(OCc3ccccc3)cc12)NCC1CC1 [Example 190]

IC50 | Structure (SMILES)
10 to 50 µM | CC1CCN(C(=O)Cc2cn(Cc3cccc(OCc4ccccc4)c3)c3ccc(OCc4ccccc4)cc23)C1 (stereo not shown) [Example 191]
< 10 µM | CS(=O)(=O)NC(=O)Cc1cn(Cc2cccc(OCc3ccccc3)c2)c2ccc(OCc3ccccc3)cc12 [Example 192]
< 10 µM | CCS(=O)(=O)NC(=O)Cc1cn(Cc2cccc(OCc3ccccc3)c2)c2ccc(OCc3ccccc3)cc12 [Example 193]
< 10 µM | O=C(Cc1cn(Cc2cccc(OCc3ccccc3)c2)c2ccc(OCc3ccccc3)cc12)NS(=O)(=O)C1CC1 [Example 194]
< 10 µM | O=C(Cc1cn(Cc2cccc(OCc3ccccc3)c2)c2ccc(OCc3ccccc3)cc12)NS(=O)(=O)c1ccccc1 [Example 195]
10 to 50 µM | O=C(NS(=O)(=O)C1CC1)c1cn(Cc2csc3ccc(Cl)cc23)c2ccccc12 [Example 196]
10 to 50 µM | CCS(=O)(=O)NC(=O)Cc1cn(Cc2csc3ccc(Cl)cc23)c2ccccc12 [Example 197]
10 to 50 µM | O=C(Cc1cn(Cc2csc3ccc(Cl)cc23)c2ccccc12)NS(=O)(=O)C1CC1 [Example 198]
10 to 50 µM | O=C(Cc1cn(Cc2csc3ccc(Cl)cc23)c2ccccc12)NS(=O)(=O)c1ccccc1 [Example 199]
10 to 50 µM | NC(=O)Cc1c(-c2ccccc2)n(Cc2csc3ccc(Cl)cc23)c2ccccc12 [Example 200]
< 10 µM | CSc1ccc2c(c1)c(CC(N)=O)cn2Cc1cccc(OCc2ccccc2)c1 [Example 201]
< 10 µM | Clc1ccc2scc(Cn3cc(Cc4nnn[nH]4)c4ccccc43)c2c1 [Example 202]
< 10 µM | c1ccc(-c2ccccc2Cn2cc(Cc3nnn[nH]3)c3ccccc32)cc1 [Example 203]
< 10 µM | Clc1ccc2scc(Cn3c(-c4ccccc4)c(Cc4nnn[nH]4)c4ccccc43)c2c1 [Example 204]
10 to 50 µM | O=C(Cn1cc(Cc2nnn[nH]2)c2ccccc21)N1CCN(Cc2ccccc2)CC1 [Example 205]
10 to 50 µM | O=C(Cn1cc(Cc2nnn[nH]2)c2ccccc21)N1CCC(Cc2ccccc2)CC1 [Example 206]
< 10 µM | O=C(NCc1ccc2c(c1)c(Cc1nn[nH]n1)cn2Cc1csc2ccc(Cl)cc12)OCc1ccccc1 [Example 207]
< 10 µM | CC(C)(C)OC(=O)NCc1ccc2c(c1)c(Cc1nn[nH]n1)cn2Cc1csc2ccc(Cl)cc12 [Example 208]
10 to 50 µM | N#CCc1cn(Cc2csc3ccc(Cl)cc23)c2ccc(CNS(=O)(=O)c3ccccc3)cc12 [Example 209]
< 10 µM | O=S(=O)(NCc1ccc2c(c1)c(Cc1nn[nH]n1)cn2Cc1csc2ccc(Cl)cc12)c1ccccc1 [Example 210]

IC50 | Structure (SMILES)
10 to 50 µM | N#CCc1cn(Cc2csc3ccc(Cl)cc23)c2ccc(CNC(=O)c3ccccc3)cc12 [Example 211]
10 to 50 µM | Oc1nnc(Cc2cn(Cc3csc4ccc(Cl)cc34)c3ccccc23)[nH]1 [Example 212]
10 to 50 µM | Oc1cc(Cc2cn(Cc3csc4ccc(Cl)cc34)c3ccccc23)n[nH]1 [Example 213]
10 to 50 µM | O=C(Cn1cc(Cc2nnn[nH]2)c2ccccc21)c1ccccc1 [Example 214]
10 to 50 µM | CC(c1nnn[nH]1)c1cn(Cc2csc3ccc(Cl)cc23)c2ccccc12 (stereo not shown) [Example 215]
10 to 50 µM | CC(C)(c1nnn[nH]1)c1cn(Cc2csc3ccc(Cl)cc23)c2ccccc12 [Example 216]
< 10 µM | O=C(O)Cc1c(C(=O)c2ccccc2)n(Cc2csc3ccc(Cl)cc23)c2ccccc12 [Example 217]
< 10 µM | O=C(O)Cc1c(C(=O)c2ccc(-c3ccccc3)cc2)n(CC2CC2)c2ccccc12 [Example 218]
< 10 µM | O=C(O)Cc1c(C(=O)c2ccc(-c3ccccc3)cc2)n(Cc2ccccc2)c2ccccc12 [Example 219]
< 10 µM | O=C(O)Cc1c(C(=O)c2ccc(-c3ccccc3)cc2)n(Cc2csc3ccc(Cl)cc23)c2ccccc12 [Example 220]
< 10 µM | O=C(O)Cc1c(C(=O)c2cccc(Oc3ccccc3)c2)n(CC2CC2)c2ccccc12 [Example 221]
< 10 µM | O=C(O)Cc1c(C(=O)c2cccc(Oc3ccccc3)c2)n(Cc2ccccc2)c2ccccc12 [Example 222]
10 to 50 µM | O=C(O)Cc1c(C(=O)c2ccc(-c3ccccc3)cc2)oc2ccccc12 [Example 223]
< 10 µM | O=C(O)Cc1c(C(=O)c2ccc(-c3ccccc3)cc2)sc2ccccc12 [Example 224]
10 to 50 µM | O=C(O)Cc1c(C(=O)c2cccc(-c3cccc(C(F)(F)F)c3)c2)[nH]c2ccccc12 [Example 225]
10 to 50 µM | CCOc1cccc(-c2cccc(C(=O)c3[nH]c4ccccc4c3CC(=O)O)c2)c1 [Example 226]
< 10 µM | CC(C)c1cccc(-c2cccc(C(=O)c3[nH]c4ccccc4c3CC(=O)O)c2)c1 [Example 227]
10 to 50 µM | CSc1cccc(-c2cccc(C(=O)c3[nH]c4ccccc4c3CC(=O)O)c2)c1 [Example 228]
